Measurements: US20210330611A1, “THERAPY FOR NEUROLOGICAL DISEASES/DISORDERS” (priority 2020, published 2021)
Several values for one entry are separate records, joined by “and”; a condition that tells them apart may be missing. Equal values may be shown once. Read-outs that look alike come from different tables or passages of the source.

Legend:
[1] = tested on: fibrin-induced microglia activation; assay: Image-based assay of fibrin-induced microglia activation (HTS and dose response); format: cell-based, rat; conditions: for IC50 / inhibition at 10 µM: Rattus norvegicus, Microglia; for inhibition at 10 µM: primary microglia HTS, fibrin stimulation, read-out: Fibrin % inhibition
[2] = tested on: LPS-induced microglia activation; assay: Image-based assay of LPS-induced microglia activation (HTS and dose response); format: cell-based, rat; conditions: Rattus norvegicus, Microglia; for inhibition at 10 µM: primary microglia HTS, LPS stimulation, read-out: LPS % inhibition
[3] = tested on: fibrin- and LPS-induced microglia activation; assay: cells; format: cell-based, rat; conditions: for inhibition at 10 µM: Rattus norvegicus; for Activity: Table 7, fib = fibrin, LPS, tox = toxicity
in vitro [4] = conditions: rat, Cell Toxicity IC50 (uM) [cFib assay]
in vitro [5] = conditions: rat
primary rat microglia [6] = assay: Cell toxicity (dead cells, size <150 μm2) in LPS assay; conditions: for LPS % cell toxicity: primary microglia HTS, LPS stimulation; for IC50: read-out: Cell Toxicity IC50 (uM) [LPS assay], LPS assay
primary rat microglia [7] = assay: Cell toxicity (dead cells, size <150 μm2) in coated fibrin (cFib) assay; conditions: primary microglia HTS, fibrin stimulation;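 as to Fibrin % cell toxicity: share of dead cells sized under 150 µm2 at 10 µM in fibrin-stimulated microglia HTS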
[8] = 48 h, Table 1, dose response 0.001-20 μM, triplicates, primary rat microglia, 48 h, read-out: Fibrin IC50
[9] = dose response, fibrin-induced microglia activation, read-out: Fibrin IC50
[10] = fibrin-induced microglia activation, dose response, read-out: Fibrin IC50 (uM) (Suppl. Table 7)
[11] = increased cell size (>800 μm^2) as marker of activation
[12] = 48 h, Table 1, dose response 0.001-20 μM, triplicates, primary rat microglia, 48 h, read-out: LPS IC50
[13] = 48 h, increased cell size (>800 μm^2) as marker of activation
[14] = LPS-induced microglia activation, dose response, read-out: LPS IC50 (uM) (Suppl. Table 7)
[15] = dose response, LPS-induced microglia activation, read-out: LPS IC50
[16] = HTS of 1907 compounds, quadrant by fibrin and LPS inhibition
[17] = Microglia, HTS hit classification, read-out: Hit
[18] = hit classification in microglia HTS, read-out: Cherry-picked Hit (Suppl. Table 7)
[19] = decreased size (<150 μm^2) as marker of toxicity
[20] = quadrant by fibrin and LPS inhibition in HTS of 1907 compounds
[21] = Table 3, read-out: Fibrin IC50 (uM) (Suppl. Table 7)
[22] = Table 6, read-out: Fibrin IC50 (uM) (Suppl. Table 7)
[23] = Table 3, read-out: LPS IC50 (uM) (Suppl. Table 7)
[24] = Table 6, read-out: LPS IC50 (uM) (Suppl. Table 7)
[25] = Microglia, Table 3, read-out: Cherry-picked Hit (Suppl. Table 7)

SMILES	IC50 [1, 8]	IC50 ([1]; Table 7, read-out: fib_IC50)	IC50 [1, 9]	IC50 [1, 10]	inhibition at 10 µM [1, 11]	IC50 [2, 12]	inhibition at 10 µM [2, 13]	IC50 [2, 14]	IC50 ([2]; Table 7, read-out: LPS_IC50)	IC50 [2, 15]	Quadrant (FIG. 5b) [3, 16]	inhibition at 10 µM [3, 17]	inhibition at 10 µM [3, 18]	Quadrant (FIG. 5b) ([3]; Table 1, screen at 10 μM)	Quadrant (FIG. 5b) ([3]; Table 2, screen at 10 μM)	IC50 (in vitro [4]; cFib assay)	IC50 (in vitro [5])	LPS % cell toxicity (primary rat microglia [6]; [19])	Fibrin % cell toxicity (primary rat microglia [7]; [19])	Quadrant (FIG. 5b) [3, 20]	further results
CC1(C)O[C@@H]2C[C@H]3[C@@H]4C[C@H](F)C5=CC(=O)C=C[C@]5(C)[C@@]4(F)[C@@H](O)C[C@]3(C)[C@]2(C(=O)CO)O1 [Fluocinolone acetonide, reference compound]	< 0.001 µM	0.002 µM	< 0.001 µM	< 0.001 µM	105%	< 0.001 µM	104%	< 0.001 µM	0.002 µM	< 0.001 µM	Q2	> 50%	> 50%	Q2	Q2	> 20 µM	> 20 µM	4%	2%	–	inhibition at 10 µM ([1]; activation = cell size >800 μm2): -35%; inhibition at 10 µM ([2]; 48 h, activation = cell size >800 μm2): 10%; Activity [3]: fib/LPS; LPS % cell toxicity (primary rat microglia [6]; toxicity = cell size <150 μm2): 0%; Fibrin % cell toxicity (primary rat microglia [7]; toxicity = cell size <150 μm2): 1%
Cc1cccc(C)c1NC(=O)c1ccccc1C(=O)O [Ftaxilide, reference compound]	> 20 µM	–	> 20 µM	> 20 µM	78%	> 20 µM	42%	> 20 µM	–	> 20 µM	Q3	> 50%	> 50%	Q3	–	> 20 µM	> 20 µM	1%	2%	Q3	–
CC(=O)O[C@H]1C[C@@]2(C)[C@@H](C[C@@H](O)[C@H]3[C@@]4(C)CC[C@@H](O)[C@@H](C)[C@@H]4CC[C@@]32C)/C1=C(\CCC=C(C)C)C(=O)O [Fusidic acid, reference compound]	19 µM	–	19 µM	19 µM	77%	> 20 µM	74%	> 20 µM	–	> 20 µM	Q2	> 50%	> 50%	Q2	–	> 20 µM	> 20 µM	2%	1%	Q2	–
CCCC(=O)O[C@]1(C(=O)CO)CC[C@H]2[C@@H]3CCC4=CC(=O)CC[C@]4(C)[C@H]3[C@@H](O)C[C@@]21C [Hydrocortisone butyrate, reference compound]	0.02 µM	0.071 µM	0.02 µM	0.02 µM	108%	2 µM	78%	2 µM	0.005 µM	2 µM	Q2	> 50%	–	Q2	Q2	> 20 µM	> 20 µM	2%	2%	Q2	Fibrin Selectivity [1]: 89; Fibrin Selectivity (LOG10) [1]: 1.95; IC50 [1, 21]: 0.02 µM; IC50 [1, 22]: 0.02 µM; IC50 [2, 23]: 2 µM; IC50 [2, 24]: 2 µM; inhibition at 10 µM [3, 25]: > 50%; Quadrant (FIG. 5b) ([3]; Table 3, screen at 10 μM): Q2; Activity [3]: fib/LPS; Quadrant (FIG. 5b) ([3]; microglia HTS, Table 6): Q2; IC50 (in vitro [4]; Table 3): > 20 µM; IC50 (in vitro [4]; cFib assay, Table 6): > 20 µM; IC50 (primary rat microglia [6]): > 20 µM; IC50 (primary rat microglia [6]; Table 6): > 20 µM
CCCCC(=O)O[C@]1(C(=O)CO)CC[C@H]2[C@@H]3CCC4=CC(=O)CC[C@]4(C)[C@H]3[C@@H](O)C[C@@]21C [Hydrocortisone valerate, reference compound]	0.05 µM	–	0.05 µM	0.05 µM	95%	1 µM	73%	1 µM	–	1 µM	Q2	> 50%	–	Q2	–	> 20 µM	> 20 µM	1%	1%	Q2	Fibrin Selectivity [1]: 28; Fibrin Selectivity (LOG10) [1]: 1.45; IC50 [1, 21]: 0.05 µM; IC50 [2, 23]: 1 µM; inhibition at 10 µM [3, 25]: > 50%; Quadrant (FIG. 5b) ([3]; Table 3, screen at 10 μM): Q2; IC50 (in vitro [4]; Table 3): > 20 µM; IC50 (primary rat microglia [6]): > 20 µM
C[C@]12CCC(=O)C=C1CC[C@@H]1[C@@H]2[C@@H](O)C[C@@]2(C)[C@H]1CC[C@]2(O)C(=O)CO [Hydrocortisone, reference compound]	–	0.018 µM	–	–	104%	–	–	–	0.002 µM	–	Q2	> 50%	–	Q2	Q2	> 20 µM	> 20 µM	2% and 1% and 5%	2% and 4%	Q2	IC50 [1, 22]: 0.03 µM; IC50 [2, 24]: 18 µM; inhibition at 10 µM [3, 25]: > 50%; Quadrant (FIG. 5b) ([3]; Table 3, screen at 10 μM): Q2; Activity [3]: fib/LPS; Quadrant (FIG. 5b) ([3]; microglia HTS, Table 6): Q2; IC50 (in vitro [4]; Table 3): > 20 µM; IC50 (in vitro [4]; cFib assay, Table 6): > 20 µM; IC50 (primary rat microglia [6]): > 20 µM; IC50 (primary rat microglia [6]; Table 6): > 20 µM
CC(C)C(=O)c1c(C(C)C)nn2ccccc12 [Ibudilast, reference compound]	> 20 µM	–	> 20 µM	> 20 µM	75%	> 20 µM	57%	> 20 µM	–	> 20 µM	Q2	> 50%	> 50%	Q2	–	> 20 µM	> 20 µM	1%	1%	Q2	–
